Like-named read-outs stand apart in the source and are kept apart here.
Legend:
PYL4 = target: T1, PYL4 (Arabidopsis thaliana, UniProt O80920); assay: receptor-mediated PP2C (HAB1) inhibition in vitro assay; type: biochemical; conditions: compound at 25 μM; control without agonist = 100%
T1 construct: 6X-His; made in house; host or cells: E. coli BL21[DE3]pLysS
T1 sequence (O80920 1-207): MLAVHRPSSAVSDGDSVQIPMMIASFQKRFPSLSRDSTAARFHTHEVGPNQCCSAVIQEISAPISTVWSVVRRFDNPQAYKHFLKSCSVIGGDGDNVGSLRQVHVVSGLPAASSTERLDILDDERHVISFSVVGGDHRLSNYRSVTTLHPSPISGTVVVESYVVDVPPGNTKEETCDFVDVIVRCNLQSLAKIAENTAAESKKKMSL
T1 sequence (Q9CAJ0 23-511 partner): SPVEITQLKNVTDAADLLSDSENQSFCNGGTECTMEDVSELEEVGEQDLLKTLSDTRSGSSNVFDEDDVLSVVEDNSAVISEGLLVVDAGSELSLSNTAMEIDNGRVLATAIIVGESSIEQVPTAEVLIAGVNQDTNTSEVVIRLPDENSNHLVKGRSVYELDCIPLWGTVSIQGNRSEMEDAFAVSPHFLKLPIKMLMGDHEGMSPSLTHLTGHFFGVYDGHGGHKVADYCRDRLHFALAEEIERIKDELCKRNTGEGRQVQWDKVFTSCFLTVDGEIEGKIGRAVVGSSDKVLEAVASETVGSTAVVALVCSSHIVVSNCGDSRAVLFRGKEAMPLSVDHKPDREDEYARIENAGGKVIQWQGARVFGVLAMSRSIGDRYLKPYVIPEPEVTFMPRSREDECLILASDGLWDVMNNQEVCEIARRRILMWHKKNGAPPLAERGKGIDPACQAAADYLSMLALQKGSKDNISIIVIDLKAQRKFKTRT
Experimental: (§1) A family of 62 structurally related N-acyl sulfonamides (Tables I-V) were tested for ABA agonist activity using multiple receptor-mediated PP2C inhibition in vitro assays (Park et al., 2009). […] The constructs utilized for protein expression have been previously described (Okamoto et al. 2013). For constructs encoding 6X-His-fusion proteins (all receptors except PYL11), the coding sequences were of the receptors were cloned in the vector pET28, expressed in BL21[DE3]pLysS E. coli host cells at 18° C. overnight, and subsequently purified from sonicated lysates using Ni-NTA agarose (Qiagen, USA), according to the manufacturer's instructions. PYL11 was constructed as a maltose binding protein fusion in the vector pMAL-c, expressed in BL21┌DE3┐pLysS host cells and purified using amylose resin (New England Biolabs) as described by the manufacturer. Recombinant GST-HAB1 was expressed and purified as described previously (Park et al., 2009). PP2C activity assays were conducted using the fluorogenic phosphatase substrate 4-methylumbelliferyl-phosphate. Recombinant receptors and HAB1 were used to examine ligand-induced PP2C inactivation in response to multiple test compounds. Enzyme inhibition assays were conducted using the following assay conditions: 50 nM GST-PP2C, 100 mM Tris-OAc (pH 7.9), 100 mM NaCl, 1 mM MnCl2, 1% β-mercaptoethanol. […] Because of this, the ratio of each receptor used in the PP2C-inhibitions assays was established empirically as the minimum fold-excess of receptor required to elicit maximal PP2C inhibition at a saturating ABA concentration (10 μM).
(§2) Based on this criterion, we used a ratio of 2:1 receptor in the assays described herein.
(§3) Using the above assay conditions, compounds were tested at 25 μM for agonist activity on PYL4, PYL5, PYL8 and PYL9. […] Consequently, a subset of the compounds was tested at multiple concentrations against 11 receptors so that IC50 values and receptor selectivity profiles could be examined. […] Thus, the N-acylsulfonamide agonists disclosed are selective for monomeric receptors.
(§4) Additional compounds were tested for biological activity following the procedures of Example 1 with minor modifications.
(§5) For these in vitro receptor assays, the compounds listed were tested in in vitro PP2C inhibition assays with 50 uM of the test compound except for ABA (10 uM). IC50s were calculated from dose curves, but only for selected compounds.

PYL9 = target: T2, PYL9 (Arabidopsis thaliana, UniProt Q84MC7); assay: as above; type: biochemical; conditions: compound at 25 μM; control without agonist = 100%
T2 construct: 6X-His; made in house; host or cells: E. coli BL21[DE3]pLysS
T2 sequence (Q84MC7 1-187): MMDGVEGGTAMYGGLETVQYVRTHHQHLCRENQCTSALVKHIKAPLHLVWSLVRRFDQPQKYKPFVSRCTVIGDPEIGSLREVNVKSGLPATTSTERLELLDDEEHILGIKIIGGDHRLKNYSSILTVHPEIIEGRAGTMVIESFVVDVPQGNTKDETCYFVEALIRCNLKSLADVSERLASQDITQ
T2 sequence (Q9CAJ0 23-511 partner): T1 sequence (Q9CAJ0 23-511 partner)
Experimental: as §1, §2, §3, §4, §5

PYL8 = target: T3, PYL8 (Arabidopsis thaliana, UniProt Q9FGM1); assay: as above; type: biochemical; conditions: compound at 25 μM; control without agonist = 100%
T3 construct: 6X-His; made in house; host or cells: E. coli BL21[DE3]pLysS
T3 sequence (Q9FGM1 1-188): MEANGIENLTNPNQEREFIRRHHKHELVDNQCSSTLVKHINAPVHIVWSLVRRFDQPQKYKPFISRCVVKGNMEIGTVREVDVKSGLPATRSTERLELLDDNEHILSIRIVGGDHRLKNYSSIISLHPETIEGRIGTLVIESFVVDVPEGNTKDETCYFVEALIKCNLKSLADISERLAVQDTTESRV
T3 sequence (Q9CAJ0 23-511 partner): T1 sequence (Q9CAJ0 23-511 partner)
Experimental: as §1, §2, §3, §4, §5

PYL5 = target: T4, PYL5 (Arabidopsis thaliana, UniProt Q9FLB1); assay: as above; type: biochemical; conditions: compound at 25 μM; control without agonist = 100%
T4 construct: 6X-His; made in house; host or cells: E. coli BL21[DE3]pLysS
T4 sequence (Q9FLB1 1-203): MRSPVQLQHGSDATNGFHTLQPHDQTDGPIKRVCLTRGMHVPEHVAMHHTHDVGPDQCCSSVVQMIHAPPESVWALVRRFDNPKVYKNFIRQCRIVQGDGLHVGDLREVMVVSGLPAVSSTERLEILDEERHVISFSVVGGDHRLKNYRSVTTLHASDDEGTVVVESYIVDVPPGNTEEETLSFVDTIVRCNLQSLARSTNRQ
T4 sequence (Q9CAJ0 23-511 partner): T1 sequence (Q9CAJ0 23-511 partner)
Experimental: as §1, §2, §3, §4, §5

[1] = test system: Arabidopsis seed germination and hypocotyl growth; assay: Arabidopsis seed germination and hypocotyl growth; type: in vivo; conditions: − = none; for Hypocotyl Growth Inhibition / Germination Inhibition: Germination Inhibition II, tested at 10 and 50 uM; for Hypocotyl Growth Inhibition: lowest concentration that inhibited hypocotyl growth in wells where seeds germinated; for minimal effective concentration: Table VIII, tested at 10 or 50 μM, lowest inhibiting concentration; for Germination Inhibition: lowest of the two concentrations that inhibited
Experimental: We germinated seeds from wild type on ½× strength Murashige and Skoog salts growth medium containing either 10 or 50 μM for all 62 compounds as well as 1 μM (+)-ABA and mock controls. […] To investigate if the any of the compounds are sufficient to control vegetative ABA responses, we treated three week old Arabidopsis plants with aqueous solutions containing 0.02% Silwet and either 50 μM of selected N-acylsulfonamides, 50 μM ABA or 0.1% DMSO (the carrier solvent for the compounds tested). The leaf temperatures were subsequently examined using a thermal imaging camera 24 hours after treatment. It is well known that ABA-induced guard cell closure reduces transpiration, which leads to increases in leaf temperatures. It has been estimated that a 1° C. increase in leaf temperature correlates with a decrease in transpiration rates by approximately 50% (Sirault et al., 2009). Since guard cell aperture is the primary determinant of transpiration rates, thermal imaging is a useful way to indirectly infer relative transpiration rates and, indirectly, relative degrees of guard cell opening at the whole plant level.
as §4
For the germination inhibition experiment, the compounds were tested at 10 and 50 uM. The amounts shown are the lowest of the two concentrations that either inhibited germination or hypocotyl growth in wells where seeds germinated.
For the germination test, the compounds were tested at 1, 5, 10, 25 and 50 uM. The amounts shown are the lowest of the concentrations that either inhibited germination or hypocotyl growth in the wells where seeds germinated.

[2] = read-out: Hypocotyl Growth Inhibition
[3] = ABA at 1 μM, read-out: Germination Inhibition

Structure (SMILES) | PP2C Activity (25 μm) PYL4 (PYL4) [%] | PP2C Activity (25 μm) PYL9 (PYL9) [%] | PP2C Activity (25 μm) PYL8 (PYL8) [%] | PP2C Activity (25 μm) PYL5 (PYL5) [%] | Hypocotyl Growth Inhibition [1] [µM] | minimal effective concentration [1, 2] [µM] | Germination Inhibition [1] [µM] | minimal effective concentration [1, 3] [µM] | remaining activity at 25 µM (PYL4) [%] | remaining activity at 25 µM (PYL9) [%] | remaining activity at 25 µM (PYL8) [%] | remaining activity at 25 µM (PYL5) [%] | minimal effective concentration ([1]; Arabidopsis thaliana, read-out: Hypocotyl Growth Inhibition) [µM]
CCC(CC)(C(=O)NS(=O)(=O)Cc1ccccc1C#N)c1ccccc1 [Compound 17] | 85 | 94 | 95 | 96 | 50 | 50 | – | – | – | – | – | – | –
COc1ccc(C(C)(C)C(=O)NS(=O)(=O)Cc2ccc(C#N)cc2)cc1 [Compound 22] | 95 | 92 | 91 | 85 | 10 | 10 | – | – | – | – | – | – | –
N#Cc1ccc(CS(=O)(=O)NC(=O)C2(c3ccccc3)CC2)cc1 [Compound 27] | 97 | 63 | 77 | 39 | 50 | 50 | – | – | – | – | – | – | –
N#Cc1ccc(CS(=O)(=O)NC(=O)C2(c3ccc(Cl)cc3)CCC2)cc1 [Compound 28] | 96 | 37 | 55 | 65 | 10 | 10 | – | – | – | – | – | – | –
N#Cc1ccc(CS(=O)(=O)NC(=O)C2(c3cccc(F)c3)CCC2)cc1 [Compound 33] | 98 | 24 | 39 | 81 | 10 | 10 | – | – | – | – | – | – | –
CC(C)(C)c1ccc(C2(C(=O)NS(=O)(=O)Cc3ccc(C#N)cc3)CC2)cc1 [Compound 34] | 95 | 107 | 103 | 99 | – | – | 50 | 50 | – | – | – | – | –
Cc1cccc(C2(C(=O)NS(=O)(=O)Cc3ccc(C#N)cc3)CC2)c1 [Compound 38] | 92 | 66 | 77 | 41 | 50 | 50 | – | – | – | – | – | – | –
COc1ccc(C2(C(=O)NS(=O)(=O)Cc3ccc(C#N)cc3)CCCC2)cc1 [Compound 39] | 98 | 66 | 71 | 110 | 10 | 10 | 50 | 50 | – | – | – | – | –
COc1ccccc1C1(C(=O)NS(=O)(=O)Cc2ccc(C#N)cc2)CC1 [Compound 41] | 93 | 81 | 89 | 27 | 10 | 10 | – | – | – | – | – | – | –
CC(C)(C(=O)NS(=O)(=O)Cc1ccc(C#N)cc1)c1ccc2c(c1)OCCO2 [Compound 53] | 89 | 98 | 99 | 95 | 50 | 50 | – | – | – | – | – | – | –
CC(C)(C(=O)NS(=O)(=O)Cc1ccc(C#N)cc1)c1ccc2ccccc2c1 [Compound 54] | 97 | 109 | 106 | 68 | 50 | 50 | – | – | – | – | – | – | –
CC1(C(=O)NS(=O)(=O)Cc2ccc(C#N)cc2)CCCc2ccccc21 (centres unmarked) [Compound 61] | – | – | – | – | 50 | – | – | – | 91 | 68 | 75 | 16 | 50
